Assay results reported in the supplement of paper PMC12076712.
One block for each compound: values may come before it.

How the values were obtained:
[1] = biological target: CTSA (UniProt P10619); assay: pIC50, competition of probe 3 labelling in live cells; conditions: cell material: Jurkat cells
[2] = biological target: MAP4K5 (UniProt Q9Y4K4); assay: as above; conditions: cell material: Jurkat cells
[3] = biological target: SRC (UniProt P12931); assay: as above; conditions: cell material: Jurkat cells
[4] = biological target: UniProt O75582; assay: as above; conditions: cell material: Jurkat cells
Chain of UniProt O75582 (O75582 whole entry, looked up): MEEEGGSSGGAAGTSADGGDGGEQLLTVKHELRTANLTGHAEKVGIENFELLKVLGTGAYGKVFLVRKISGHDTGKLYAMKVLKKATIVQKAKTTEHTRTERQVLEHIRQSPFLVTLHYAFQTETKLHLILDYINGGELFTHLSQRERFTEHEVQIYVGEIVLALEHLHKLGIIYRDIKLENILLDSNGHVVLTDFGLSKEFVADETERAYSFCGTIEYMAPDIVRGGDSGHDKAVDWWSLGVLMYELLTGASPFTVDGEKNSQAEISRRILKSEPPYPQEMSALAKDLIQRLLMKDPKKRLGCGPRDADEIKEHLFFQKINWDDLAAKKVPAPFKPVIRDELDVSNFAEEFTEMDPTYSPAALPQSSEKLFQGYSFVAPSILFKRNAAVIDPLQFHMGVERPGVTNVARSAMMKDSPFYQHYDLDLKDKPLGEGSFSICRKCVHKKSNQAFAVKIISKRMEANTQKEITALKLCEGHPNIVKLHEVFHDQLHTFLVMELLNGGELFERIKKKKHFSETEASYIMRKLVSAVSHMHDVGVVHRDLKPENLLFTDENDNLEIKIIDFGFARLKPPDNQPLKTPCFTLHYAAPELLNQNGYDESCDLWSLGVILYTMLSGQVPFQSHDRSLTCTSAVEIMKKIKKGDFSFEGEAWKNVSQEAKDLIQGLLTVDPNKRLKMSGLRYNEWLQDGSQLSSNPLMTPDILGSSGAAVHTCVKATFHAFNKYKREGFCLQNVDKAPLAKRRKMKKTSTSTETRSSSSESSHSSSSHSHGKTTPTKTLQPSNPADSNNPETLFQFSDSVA

[5] = biological target: MTOR (UniProt P42345); assay: pIC50, kinobeads binding competition; conditions: cell material: Jurkat cells
How it was run: (§1)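 To obtain pIC50, fold changes versus vehicle were fitted to logistic dose-response curves (R drc package) across biological duplicates. Protein binding to Kinobeads was quantified by TMT10 LC-MS/MS of digested bead-bound proteins. Treatments used nine concentrations with a top of 30 μM, applied to live Jurkat cells in 1:4 steps for 60 min at 37 °C before lysis, or to Jurkat lysate or a 1:1:1:1 HEK293/K-562/HepG2/placenta lysate mix in 1:5 steps for 60 min at 4 °C.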

[6] = biological target: PAK6 (UniProt Q9NQU5); assay: pIC50, kinobeads binding competition; conditions: cell material: Jurkat lysate
How it was run: as §1

[7] = biological target: PASK (UniProt Q96RG2); assay: pIC50, kinobeads binding competition; conditions: cell material: Jurkat cells
How it was run: as §1

[8] = biological target: RIPK1 (UniProt Q13546); assay: pIC50, kinobeads binding competition; conditions: cell material: Jurkat cells
How it was run: as §1

[9] = biological target: TYRO3 (UniProt Q06418); assay: pIC50, kinobeads binding competition; conditions: cell material: Jurkat lysate
Chain of TYRO3 (Q06418 whole entry): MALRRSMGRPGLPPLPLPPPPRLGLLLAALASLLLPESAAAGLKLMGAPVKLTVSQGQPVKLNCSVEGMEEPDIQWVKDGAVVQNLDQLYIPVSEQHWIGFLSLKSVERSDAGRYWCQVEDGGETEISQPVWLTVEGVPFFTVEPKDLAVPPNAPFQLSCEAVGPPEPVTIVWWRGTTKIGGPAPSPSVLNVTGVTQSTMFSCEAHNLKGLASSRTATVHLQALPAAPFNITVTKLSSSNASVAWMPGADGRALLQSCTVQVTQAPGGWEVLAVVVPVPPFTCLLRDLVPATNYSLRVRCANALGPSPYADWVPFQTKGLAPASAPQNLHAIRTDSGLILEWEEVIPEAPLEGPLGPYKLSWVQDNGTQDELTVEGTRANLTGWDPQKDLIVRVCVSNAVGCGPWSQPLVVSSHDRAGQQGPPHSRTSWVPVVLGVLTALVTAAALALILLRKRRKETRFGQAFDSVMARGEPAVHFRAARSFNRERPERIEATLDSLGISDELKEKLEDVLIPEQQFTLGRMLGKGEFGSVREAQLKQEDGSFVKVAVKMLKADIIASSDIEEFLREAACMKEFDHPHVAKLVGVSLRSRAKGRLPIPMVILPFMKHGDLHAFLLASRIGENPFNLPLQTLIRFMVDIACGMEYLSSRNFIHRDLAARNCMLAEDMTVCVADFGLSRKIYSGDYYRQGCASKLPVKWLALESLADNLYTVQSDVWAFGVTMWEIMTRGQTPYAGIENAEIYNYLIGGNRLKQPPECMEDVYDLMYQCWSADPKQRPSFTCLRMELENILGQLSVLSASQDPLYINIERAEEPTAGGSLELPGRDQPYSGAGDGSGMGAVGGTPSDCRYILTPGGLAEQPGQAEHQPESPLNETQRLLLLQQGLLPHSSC
How it was run: as §1

[10] = biological target: UniProt Q6DT37; assay: pIC50, kinobeads binding competition; conditions: cell material: Lysate mix
Chain of UniProt Q6DT37 (Q6DT37 whole entry): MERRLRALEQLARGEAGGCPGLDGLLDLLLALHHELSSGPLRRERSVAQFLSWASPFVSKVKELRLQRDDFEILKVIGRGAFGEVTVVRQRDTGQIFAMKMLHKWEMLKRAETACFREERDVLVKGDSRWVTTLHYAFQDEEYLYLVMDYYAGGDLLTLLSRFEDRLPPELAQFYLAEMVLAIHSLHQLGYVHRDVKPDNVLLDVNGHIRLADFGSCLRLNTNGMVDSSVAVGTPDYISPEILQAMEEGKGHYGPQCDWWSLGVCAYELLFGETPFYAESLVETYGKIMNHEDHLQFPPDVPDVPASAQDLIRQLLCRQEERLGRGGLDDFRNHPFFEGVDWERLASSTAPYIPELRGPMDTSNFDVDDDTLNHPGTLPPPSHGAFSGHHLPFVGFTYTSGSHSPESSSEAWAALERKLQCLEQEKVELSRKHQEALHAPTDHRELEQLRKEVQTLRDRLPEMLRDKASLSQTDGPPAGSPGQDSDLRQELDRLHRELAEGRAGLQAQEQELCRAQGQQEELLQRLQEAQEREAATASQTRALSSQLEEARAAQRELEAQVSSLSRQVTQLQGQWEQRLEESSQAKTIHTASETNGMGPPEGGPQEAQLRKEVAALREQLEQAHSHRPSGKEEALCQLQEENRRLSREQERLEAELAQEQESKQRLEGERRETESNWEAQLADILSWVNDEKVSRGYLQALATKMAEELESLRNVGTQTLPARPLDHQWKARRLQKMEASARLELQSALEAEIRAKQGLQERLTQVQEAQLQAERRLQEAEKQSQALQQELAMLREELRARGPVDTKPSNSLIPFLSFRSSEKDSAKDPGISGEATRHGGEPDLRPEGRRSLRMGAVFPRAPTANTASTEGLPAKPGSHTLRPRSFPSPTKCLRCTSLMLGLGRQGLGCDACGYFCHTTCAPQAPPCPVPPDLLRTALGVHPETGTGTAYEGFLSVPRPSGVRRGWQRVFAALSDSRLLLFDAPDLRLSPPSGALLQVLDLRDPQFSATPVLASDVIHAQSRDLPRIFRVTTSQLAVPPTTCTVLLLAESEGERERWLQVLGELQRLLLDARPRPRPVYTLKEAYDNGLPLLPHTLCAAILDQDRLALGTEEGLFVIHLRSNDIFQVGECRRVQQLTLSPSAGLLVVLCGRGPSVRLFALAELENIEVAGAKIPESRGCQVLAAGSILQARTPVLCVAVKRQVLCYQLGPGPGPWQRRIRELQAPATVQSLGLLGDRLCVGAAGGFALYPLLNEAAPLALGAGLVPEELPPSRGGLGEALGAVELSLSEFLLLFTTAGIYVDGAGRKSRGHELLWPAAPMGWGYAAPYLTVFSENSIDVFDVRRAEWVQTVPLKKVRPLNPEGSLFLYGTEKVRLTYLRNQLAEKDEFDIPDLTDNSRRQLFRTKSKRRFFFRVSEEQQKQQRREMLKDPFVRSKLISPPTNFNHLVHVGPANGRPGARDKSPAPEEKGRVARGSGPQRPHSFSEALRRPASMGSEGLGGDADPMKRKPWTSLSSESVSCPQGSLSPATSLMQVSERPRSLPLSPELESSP
How it was run: as §1

[11] = biological target: PIK3CD (UniProt O00329); assay: pIC50, kinobeads binding competition; conditions: cell material: Jurkat cells
How it was run: as §1

[12] = biological target: UniProt P05129; assay: pIC50, kinobeads binding competition; conditions: cell material: Jurkat cells
How it was run: as §1

[13] = biological target: UniProt P19525; assay: pIC50, kinobeads binding competition; conditions: cell material: Lysate mix
Chain of UniProt P19525 (P19525 whole entry): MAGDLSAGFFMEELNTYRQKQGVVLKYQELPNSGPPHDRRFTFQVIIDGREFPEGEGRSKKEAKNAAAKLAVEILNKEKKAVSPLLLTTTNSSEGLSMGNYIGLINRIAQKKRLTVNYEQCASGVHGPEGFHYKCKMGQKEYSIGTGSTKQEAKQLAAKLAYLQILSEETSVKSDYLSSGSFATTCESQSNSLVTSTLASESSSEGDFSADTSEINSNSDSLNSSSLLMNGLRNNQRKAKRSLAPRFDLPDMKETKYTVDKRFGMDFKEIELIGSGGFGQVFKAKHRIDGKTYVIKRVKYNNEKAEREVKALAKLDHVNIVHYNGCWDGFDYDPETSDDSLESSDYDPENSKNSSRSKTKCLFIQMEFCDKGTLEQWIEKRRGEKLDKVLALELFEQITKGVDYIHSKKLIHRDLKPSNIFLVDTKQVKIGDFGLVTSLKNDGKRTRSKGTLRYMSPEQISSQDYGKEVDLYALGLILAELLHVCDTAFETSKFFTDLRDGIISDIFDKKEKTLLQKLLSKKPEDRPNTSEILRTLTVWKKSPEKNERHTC
How it was run: as §1

[14] = biological target: UniProt P35590; assay: pIC50, kinobeads binding competition; conditions: cell material: Lysate mix
How it was run: as §1

[15] = biological target: UniProt Q05513; assay: pIC50, kinobeads binding competition; conditions: cell material: Lysate mix
How it was run: as §1

[16] = biological target: CAMK1D (UniProt Q8IU85); assay: pIC50, competition of probe 3 labelling in live cells; conditions: cell material: Jurkat cells
[17] = biological target: CDK2 (UniProt P24941); assay: as above; conditions: cell material: Jurkat cells
[18] = biological target: CDK5 (UniProt Q00535); assay: as above; conditions: cell material: Jurkat cells
[19] = biological target: UniProt P36507; assay: as above; conditions: cell material: Jurkat cells
[20] = biological target: UniProt Q02750; assay: as above; conditions: cell material: Jurkat cells
Chain of UniProt Q02750 (Q02750 whole entry): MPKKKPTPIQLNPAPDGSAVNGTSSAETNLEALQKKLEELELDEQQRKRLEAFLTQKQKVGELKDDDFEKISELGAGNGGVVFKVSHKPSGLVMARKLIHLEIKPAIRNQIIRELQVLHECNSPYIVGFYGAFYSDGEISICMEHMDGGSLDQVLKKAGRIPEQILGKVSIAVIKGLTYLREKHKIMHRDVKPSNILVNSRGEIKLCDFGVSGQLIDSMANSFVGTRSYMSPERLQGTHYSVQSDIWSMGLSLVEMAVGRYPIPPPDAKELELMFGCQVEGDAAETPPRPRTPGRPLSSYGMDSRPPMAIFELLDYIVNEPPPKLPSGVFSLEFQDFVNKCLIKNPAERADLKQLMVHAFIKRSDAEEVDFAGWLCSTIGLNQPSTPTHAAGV

[21] = biological target: STRADB (UniProt Q9C0K7); assay: pIC50, kinobeads binding competition; conditions: cell material: Lysate mix
How it was run: as §1

[22] = biological target: TWF1 (UniProt Q12792); assay: pIC50, kinobeads binding competition; conditions: cell material: Lysate mix
How it was run: as §1

[23] = biological target: UniProt P78368; assay: pIC50, kinobeads binding competition; conditions: cell material: Lysate mix
How it was run: as §1

[24] = biological target: UniProt Q9P286; assay: pIC50, kinobeads binding competition; conditions: cell material: Lysate mix
How it was run: as §1

Chain of MAP4K5 (Q9Y4K4 whole entry, looked up): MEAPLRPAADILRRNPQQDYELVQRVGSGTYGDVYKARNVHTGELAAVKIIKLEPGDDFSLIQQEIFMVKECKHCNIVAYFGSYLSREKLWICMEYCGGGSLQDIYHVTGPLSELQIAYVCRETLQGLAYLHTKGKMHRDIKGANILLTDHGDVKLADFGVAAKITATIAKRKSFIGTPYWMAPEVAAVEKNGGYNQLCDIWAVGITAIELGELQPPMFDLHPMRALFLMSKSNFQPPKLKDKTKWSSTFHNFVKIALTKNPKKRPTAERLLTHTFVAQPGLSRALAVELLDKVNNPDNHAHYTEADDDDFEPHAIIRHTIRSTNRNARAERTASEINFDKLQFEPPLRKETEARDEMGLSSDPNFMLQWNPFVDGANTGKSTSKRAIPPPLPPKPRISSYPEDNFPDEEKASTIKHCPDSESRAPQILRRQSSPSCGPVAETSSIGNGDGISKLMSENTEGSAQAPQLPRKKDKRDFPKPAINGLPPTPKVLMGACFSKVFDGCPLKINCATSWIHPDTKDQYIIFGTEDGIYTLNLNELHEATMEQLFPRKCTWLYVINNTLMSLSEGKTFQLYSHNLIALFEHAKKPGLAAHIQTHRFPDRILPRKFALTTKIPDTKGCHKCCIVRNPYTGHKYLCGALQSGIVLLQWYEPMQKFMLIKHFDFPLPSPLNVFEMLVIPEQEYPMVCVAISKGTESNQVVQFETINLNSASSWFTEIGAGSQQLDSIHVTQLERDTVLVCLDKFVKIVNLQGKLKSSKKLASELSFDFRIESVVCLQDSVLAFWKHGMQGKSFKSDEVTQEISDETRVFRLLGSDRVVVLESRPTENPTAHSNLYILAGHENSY

pIC50 [11]: < 4.52 | pIC50 [12]: 4.77
Compound: O=C(NCCNC(=O)c1cc(Nc2cc(C3CC3)[nH]n2)nc(N2CCN(Cc3ccc(S(=O)(=O)F)cc3)CC2)n1)OC1CC/C=C/CCC1 (centres undefined)

pIC50 [21]: < 4.52 | pIC50 [22]: < 4.52 | pIC50 [23]: < 4.52 | pIC50 [24]: < 4.52
Compound: Cc1cc(Nc2cc(C(=O)NCCNC(=O)OC3CC/C=C/CCC3)nc(N3CCN(Cc4ccc(S(=O)(=O)F)cc4)CC3)n2)n[nH]1 (centres undefined)

Further lines, the compound ahead of its results:

Compound: CCc1cnn2c(NCc3ccc[n+]([O-])c3)cc(N3CCCC[C@H]3CCO)nc12 [dinaciclib]
pIC50 [1]: < 4.52 | pIC50 [2]: < 4.52 | pIC50 [3]: < 4.52 | pIC50 [4]: < 4.52

Compound: C#CCNC(=O)c1cc(Nc2cc(C3CC3)[nH]n2)nc(N2CCN(Cc3ccc(S(=O)(=O)F)cc3)CC2)n1
pIC50 [5]: < 4.52 | pIC50 [6]: 5.49 | pIC50 [7]: 4.7 | pIC50 [8]: 5.32 | pIC50 [9]: < 4.52 | pIC50 [10]: < 4.52

Compound: CCNC(=O)c1cc(Nc2cc(C)[nH]n2)nc(N2CCN(Cc3ccc(S(=O)(=O)F)cc3)CC2)n1
pIC50 [13]: < 4.52 | pIC50 [14]: < 4.52 | pIC50 [15]: < 4.52

Compound: CC#CC(=O)Nc1ccc2ncnc(Nc3cccc(Br)c3)c2c1 [EKI-785]
pIC50 [16]: < 4.52 | pIC50 [17]: < 4.52 | pIC50 [18]: < 4.52 | pIC50 [19]: < 4.52 | pIC50 [20]: < 4.52
